Here are results for eleven compounds from PubChem BioAssay (NCI).

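Tested at 5 concentrations; 48 h exposure; 96-well plates; endpoints linearly interpolated, else capped at highest concentration. The concentration for full growth arrest is given as TGI.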

Holding throughout (assay): NCI anticancer screen, dose series, 48 h
Assay [1] relates to OVCAR-8 ovarian.
Assay [2] concerns SK-MEL-5 melanoma.
Assay [3] deals with T-47D breast.
For assay [4], the system named is MDA-N.
The subject of assay [5] is NCI/ADR-RES ovarian.
Assay [6] deals with MCF7 breast.
The subject of assay [7] is SF-268 CNS.
Assay [8] has as its system HOP-62 NSCLC.
In assay [9] the test system is K-562 leukemia.
The test system of assay [10] is MDA-MB-231 breast.
The subject of assay [11] is U251 CNS.
In assay [12] the test system is IGROV1 ovarian.
Assay [13] concerns CCRF-CEM leukemia.
Assay [14] concerns NCI-H460 lung.
In assay [15] the test system is DU-145 prostate.
For assay [16], the system named is M14 melanoma.
The subject of assay [17] is UO-31 renal.
The subject of assay [18] is HL-60(TB) leukemia.
The subject of assay [19] is RXF 393 renal.
Assay [20] has as its system HOP-92 NSCLC.

With `CC1OC(OC2C(O)COC(OC3C(C)OC(OC4C(OC(=O)[C@]56CCC(C)(C)C[C@@H]5C5=CCC7[C@@]8(C)C[C@H](O)[C@H](OC9OC(CO)C(O)C(O)C9O)[C@@](C)(CO)[C@@H]8CC[C@@]7(C)[C@]5(C)CC6)OCC(O)C4O)C(O)C3OC3OCC(O)(CO)C3O)C2O)C(O)C(O)C1O` (stereo not given in full), the TGI in assay [1] was 40.4 µM; in assay [2], 29.8 µM; in [3] it was 51.1 µM; in assay [4] it was 32.5 µM; in assay [5], 41.7 µM; in assay [6], above 67.9 µM. Besides, the TGI in [7] is 28.4 µM; in assay [8] it was 34.5 µM; in [9], above 75 µM; in assay [10], 30 µM; in assay [11], 37.4 µM; in [12], 31.1 µM. The TGI amounted to 44.7 µM in [13]; 42.2 µM in assay [14]; 30.3 µM in [15]; 10.4 µM in [16]; 14.2 µM in [17]; 30.2 µM in assay [18]. The TGI amounted to 34.1 µM in assay [19] and 50.3 µM in assay [20].

In the case of `COc1cc(NS(C)(=O)=O)ccc1Nc1c2ccccc2nc2c1[nH]c1ccc(NC3OC(CO)C(O)C(O)C3O)cc12` (stereo not given), the TGI in assay [1] is 0.95 µM; in assay [2], 1.31 µM; in [3], 15.7 µM; in assay [4] it was 2.71 µM; in assay [5] it was 45.8 µM; in [6], 10.1 µM. The TGI turned out to be 1.51 µM in assay [7]; 0.208 µM in assay [8]; 20.3 µM in assay [9]; 8.11 µM in [10]; 0.332 µM in assay [11]; 3.47 µM in assay [12]. Moreover, the TGI in [13] turned out to be 3.12 µM; in assay [14], 0.196 µM; in assay [15] it was 0.245 µM; in assay [16] it was 0.971 µM; in [17], 1.19 µM; in [18], 0.282 µM. The results for the TGI in [19] and in assay [20] were 0.61 µM and 1.04 µM, respectively.

Turning to `CN=C(N=Nc1c(O)[nH]c2ccccc12)SCC(=O)c1ccc(Br)cc1`, the TGI was above 40.7 µM in assay [1]; above 93.2 µM in assay [2]; above 100 µM in assay [3]; above 100 µM in assay [4]; 27 µM in assay [5]; 20.4 µM in [6]. For the same compound, the TGI in [7] was above 48.7 µM; in assay [8] it was 20.7 µM; in assay [9] it was above 100 µM; in [10], 19.8 µM; in assay [11], 16.6 µM; in assay [12], above 100 µM. Besides, the TGI in [13] was 30.8 µM; in [14] it was above 38.3 µM; in assay [15], 30.5 µM; in assay [16], 39.3 µM; in [17] it was 3.79 µM; in assay [18] it was above 100 µM. The TGI in assay [19] is 19.2 µM; in assay [20], above 52.4 µM.

For the compound `O=C(Oc1ccccn1)c1cc2cc(CCl)ccc2oc1=O`, the TGI in assay [1] is above 100 µM; in [2], above 100 µM; in [3], above 100 µM; in assay [4] it was above 100 µM; in [5] it was 75.5 µM; in assay [6], above 100 µM. In addition, the TGI in assay [7] was 39.2 µM; in [8] it was 52.9 µM; in [9], above 100 µM; in [10] it was 46.6 µM; in assay [11], 34.7 µM; in assay [12], above 100 µM. Further, the TGI in assay [13], in assay [14], in assay [15], in assay [16], in assay [17] and in assay [18] was above 100 µM in each case. In addition, the TGI in assay [19] is 41.3 µM; in [20] it was 39.3 µM.

For `CC(=O)c1[nH]c(NCc2ccccc2)c(C(=S)Nc2ccccc2)c1N`, the TGI was 39.2 µM in assay [1]; 34.9 µM in [2]; 63.3 µM in assay [3]; 39.1 µM in assay [4]; above 100 µM in assay [5]; 37.2 µM in [6]. In addition, the TGI in [7] came out at 55.3 µM; in assay [8], 40 µM; in assay [9] it was 76.1 µM; in [10], 34.1 µM; in [11] it was 32.7 µM; in [12], 14.1 µM. Further, the TGI in [13] was above 100 µM; in [14], 56.5 µM; in assay [15] it was above 100 µM; in assay [16] it was 33.7 µM; in assay [17] it was 6.34 µM; in [18], 35.3 µM. The results for the TGI in assay [19] and in assay [20] were 35.6 µM and 59.3 µM, respectively.

In the case of `Cc1nn(-c2ccccc2)c2c1C(c1ccc(Cl)cc1)NC(=S)N2` (stereo not given), the TGI is 43.3 µM in assay [1]; 52.1 µM in assay [2]; above 100 µM in assay [3]; 93.6 µM in [4]; 68.5 µM in [5]; above 100 µM in [6]. Moreover, the TGI is above 100 µM in assay [7]; 80.1 µM in assay [8]; above 100 µM in assay [9]; 51.2 µM in assay [10]; 48.1 µM in assay [11]; 28.1 µM in assay [12]. Besides, the TGI in assay [13] was 72.8 µM; in assay [14] it was 60 µM; in assay [15], above 100 µM; in assay [16], above 100 µM; in assay [17], 28.8 µM; in assay [18], 95.8 µM. The TGI in assay [19] was 35.3 µM; in assay [20], 35.2 µM.

For the compound `O=C(/C=C/c1cc2ccccc2o1)N1CCN(c2ccccn2)CC1`, the TGI in [1], in [2], in assay [3], in assay [4], in assay [5] and in assay [6] was above 100 µM in each case. Further, the TGI in assay [7], in assay [8], in assay [9], in [10], in assay [11] and in assay [12] was above 100 µM each time. Moreover, the TGI in [13], in [14], in [15], in assay [16], in [17] and in [18] was above 100 µM throughout. Besides, the TGI in assay [19] and in assay [20] was above 100 µM throughout.

For `CN(C)CCCC12CCCCC1=Nc1ccccc12` (stereo not given), the TGI in assay [1], in assay [2], in assay [3], in assay [4], in assay [5] and in [6] was above 100 µM throughout. Also, the TGI in assay [7], in assay [8], in assay [9], in assay [10], in assay [11] and in assay [12] was above 100 µM each time. Also, the TGI was above 100 µM in assay [13]; above 100 µM in assay [14]; above 100 µM in [15]; above 100 µM in assay [16]; above 100 µM in [17]; 76.3 µM in assay [18]. Also, the TGI in assay [19] and in [20] was above 100 µM throughout.

For the compound `Fc1cc(-c2cc(-c3ccccc3)no2)c(Cl)cc1Cl`, the TGI in [1] was above 40.8 µM; in assay [2] it was above 33.5 µM; in assay [3], above 57.7 µM; in [4] it was above 68.9 µM; in assay [5], above 100 µM; in [6], above 100 µM. Besides, the TGI was above 54.2 µM in [7]; above 54.8 µM in assay [8]; above 56.4 µM in assay [9]; 32.8 µM in assay [10]; above 21.7 µM in assay [11]; above 50.8 µM in assay [12]. Besides, the TGI in [13] was above 49.6 µM; in assay [14] it was above 43.1 µM; in assay [15], above 48.6 µM; in assay [16] it was above 54.7 µM; in [17] it was above 59.3 µM; in assay [18] it was above 37.7 µM. Besides, the values for the TGI in [19] and in assay [20] were 16.6 µM and 35.7 µM, respectively.

In the case of `COc1cc2c(C)cc(O)cc2c2cc(O)c(C)cc12`, the TGI in [1] stood at 40.2 µM; in assay [2], 20.3 µM; in [3], 20.5 µM; in assay [4] it was 20 µM; in [5] it was 30.4 µM; in assay [6] it was 20.5 µM. The TGI in assay [7] came out at 29.6 µM; in assay [8], 15.5 µM; in assay [9] it was 9.94 µM; in [10], 19.2 µM; in [11], 21.3 µM; in assay [12] it was 29 µM. For the same compound, the TGI in assay [13] is 18.2 µM; in assay [14], 9.73 µM; in assay [15] it was 20.9 µM; in assay [16], 6.67 µM; in [17], 19.1 µM; in assay [18], 13 µM. Further, the TGI is 22.9 µM in assay [19] and 22.3 µM in assay [20].

For `CC#CCOC(=O)c1ccccc1OC(C)=O`, the TGI in [1], in assay [2], in assay [3], in [4], in assay [5] and in assay [6] was above 100 µM in each case. Besides, the TGI in [7], in assay [8], in assay [9], in assay [10], in assay [11] and in assay [12] was above 100 µM each time. Also, the TGI in assay [13], in assay [14], in assay [15], in [16], in assay [17] and in [18] was above 100 µM throughout. The TGI in [19] and in [20] was above 100 µM throughout.
